What all share (assay type): in vivo
Assay [1] concerns broad-leaf weeds and grass weeds. Description: General screening of herbicidal activity in greenhouse.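 Further: 0 means no visible effect and 100 means all weeds dead or not emerged.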 The note with it: 1000 g a.i./hm^2. As for the experimental part:
(§1) Determination of herbicidal activity of compounds of the present invention against weeds was carried out by the following procedures:
(§2) Seeds of monocotyledonous and dicotyledonous weeds were sown in nutrition soil in paper pot (7 cm diameter), covered with soil in 1 cm and grown in the greenhouse under good growth conditions (temperature, atmospheric humidity, water supply). The compounds of the present invention as emulsifiable concentrate, were applied in pre-emergence and post-emergence treatment by track sprayer (Engineer Research Ltd., pressure 1.95 kg/cm^2, volume 500 L/hm^2, track speed 1.48 km/h). Pre-emergence treatment was conducted after seeding 24 hours and post-emergence treatment was done when the respective weeds reached predetermined leaf stage (grass weed 2- to 3-leaf stage, broad-leaf weed 2- to 4-leaf stage), the state of growth of the respective weeds were visually observed to determine the growth inhibition rate (%) in accordance with the following evaluation standard.
(§3) Growth inhibition rate (%): 0=no discernible action: 100=all weeds dead or not emerged.

Assay [2] concerns Setaria glauca (L.) Beauv. Description: Bioassay of herbicidal activity in greenhouse (further screening). On the procedure: as §1, §2, §3
Assay [3] deals with Abutilon theophrasti Medic. Described as above. As for the experimental part: as §1, §2, §3
Assay [4] deals with Echinochloa crus-galli (L.) Beauv. Described as above. As for the experimental part: as §1, §2, §3
The next assay relates to Zinnia elegans Jacq. Described as above. As for the experimental part:
as §1, §2, §3

Take `Cn1c(C(F)(F)F)cc(=O)n(-c2cc(C3=NOC(C)(C(=O)OCC(F)(F)F)C3)c(Cl)cc2F)c1=O` (stereo not drawn) [Compound 396]: the “pre-emergence and post-emergence herbicidal activity against broad-leaf weeds and grass weeds” value in assay [1] is listed as “good”. In addition, the “Growth inhibition rate, Post-emergence treatment, Setaria glauca (L.) Beauv.” value in assay [2] (dose 7.5 g a.i./hm^2) worked out at 25%; in assay [2] (dose 15 g a.i./hm^2), 55%; in assay [2] (dose 30.0 g a.i./hm^2), 85%; in assay [2] (dose 60.0 g a.i./hm^2) it was 98%; in assay [2] (dose 120.0 g a.i./hm^2) it was 100%. Besides, the “Growth inhibition rate, Post-emergence treatment, Abutilon theophrasti Medic.” value in assay [3] (dose 7.5 g a.i./hm^2) stood at 98%; in assay [3] (dose 15 g a.i./hm^2) it was 100%; in assay [3] (dose 30.0 g a.i./hm^2), 100%; in assay [3] (dose 60.0 g a.i./hm^2), 100%; in assay [3] (dose 120.0 g a.i./hm^2), 100%. The “Growth inhibition rate, Post-emergence treatment, Echinochloa crus-galli (L.) Beauv.” value in assay [4] (dose 7.5 g a.i./hm^2) is reported as 20%; in assay [4] (dose 15 g a.i./hm^2) it was 55%; in assay [4] (dose 30.0 g a.i./hm^2), 95%; in assay [4] (dose 60.0 g a.i./hm^2), 100%; in assay [4] (dose 120.0 g a.i./hm^2) it was 100%. In addition, the “Growth inhibition rate, Post-emergence treatment, Zinnia elegans Jacq.” value in the assay on Zinnia elegans Jacq. (dose 7.5 g a.i./hm^2) is 30%; in the assay on Zinnia elegans Jacq. (dose 15 g a.i./hm^2) it was 60%; with Zinnia elegans Jacq. (dose 30.0 g a.i./hm^2) it was 75%; with Zinnia elegans Jacq. (dose 60.0 g a.i./hm^2) it was 100%; in the assay on Zinnia elegans Jacq. (dose 120.0 g a.i./hm^2) it was 100%.

On to `Cn1c(C(F)(F)F)cc(=O)n(-c2cc(C3=NOC(C)(C(=O)O)C3)c(Cl)cc2F)c1=O` (stereo not drawn) [Compound 4], for which, in assay [1], the “pre-emergence and post-emergence herbicidal activity against broad-leaf weeds and grass weeds” value is on record as “good”. The “Growth inhibition rate, Post-emergence treatment, Setaria glauca (L.) Beauv.” value in assay [2] (dose 37.5 g a.i./hm^2) is 20%; in assay [2] (dose 150 g a.i./hm^2) it was 70%; in assay [2] (dose 600 g a.i./hm^2), 100%. Besides, the “Growth inhibition rate, Pre-emergence treatment, Setaria glauca (L.) Beauv.” value in assay [2] (dose 37.5 g a.i./hm^2) was 0%; in assay [2] (dose 150 g a.i./hm^2), 5%; in assay [2] (dose 600 g a.i./hm^2), 30%. Besides, the “Growth inhibition rate, Post-emergence treatment, Abutilon theophrasti Medic.” value worked out at 50% in assay [3] (dose 37.5 g a.i./hm^2), 98% in assay [3] (dose 150 g a.i./hm^2) and 98% in assay [3] (dose 600 g a.i./hm^2). The “Growth inhibition rate, Pre-emergence treatment, Abutilon theophrasti Medic.” value in assay [3] (dose 37.5 g a.i./hm^2) is 10%; in assay [3] (dose 150 g a.i./hm^2), 15%; in assay [3] (dose 600 g a.i./hm^2) it was 40%. Besides, the “Growth inhibition rate, Post-emergence treatment, Echinochloa crus-galli (L.) Beauv.” value worked out at 15% in assay [4] (dose 37.5 g a.i./hm^2), 25% in assay [4] (dose 150 g a.i./hm^2) and 85% in assay [4] (dose 600 g a.i./hm^2). The “Growth inhibition rate, Pre-emergence treatment, Echinochloa crus-galli (L.) Beauv.” value in assay [4] (dose 37.5 g a.i./hm^2) came to 0%; in assay [4] (dose 150 g a.i./hm^2), 0%; in assay [4] (dose 600 g a.i./hm^2), 10%. Besides, the entries for the “Growth inhibition rate, Post-emergence treatment, Zinnia elegans Jacq.” value with Zinnia elegans Jacq. (dose 37.5 g a.i./hm^2), in the assay with Zinnia elegans Jacq. (dose 150 g a.i./hm^2) and in the assay with Zinnia elegans Jacq. (dose 600 g a.i./hm^2) were 95%, 100% and 100%, respectively. Further, the figures for the “Growth inhibition rate, Pre-emergence treatment, Zinnia elegans Jacq.” value in the assay with Zinnia elegans Jacq. (dose 37.5 g a.i./hm^2), in the assay with Zinnia elegans Jacq. (dose 150 g a.i./hm^2) and in the assay on Zinnia elegans Jacq. (dose 600 g a.i./hm^2) were 0%, 5% and 20%, respectively.

With `CCOC(=O)C1(C)CC(c2cc(-n3c(=O)cc(C(F)(F)F)n(C)c3=O)ccc2Cl)=NO1` (stereo not drawn) [Compound 284], the “pre-emergence and post-emergence herbicidal activity against broad-leaf weeds and grass weeds” value in assay [1] was “good”. Besides, the “Growth inhibition rate, Post-emergence treatment, Setaria glauca (L.) Beauv.” value in assay [2] (dose 37.5 g a.i./hm^2) was 75%; in assay [2] (dose 150 g a.i./hm^2), 90%; in assay [2] (dose 600 g a.i./hm^2), 100%. Besides, the “Growth inhibition rate, Pre-emergence treatment, Setaria glauca (L.) Beauv.” value in assay [2] (dose 37.5 g a.i./hm^2) is on record as 0%; in assay [2] (dose 150 g a.i./hm^2), 10%; in assay [2] (dose 600 g a.i./hm^2) it was 20%. In addition, the “Growth inhibition rate, Post-emergence treatment, Abutilon theophrasti Medic.” value stood at 95% in assay [3] (dose 37.5 g a.i./hm^2), 100% in assay [3] (dose 150 g a.i./hm^2) and 100% in assay [3] (dose 600 g a.i./hm^2). The entries for the “Growth inhibition rate, Pre-emergence treatment, Abutilon theophrasti Medic.” value in assay [3] (dose 37.5 g a.i./hm^2), in assay [3] (dose 150 g a.i./hm^2) and in assay [3] (dose 600 g a.i./hm^2) were 0%, 50% and 65%, respectively. Also, the “Growth inhibition rate, Post-emergence treatment, Echinochloa crus-galli (L.) Beauv.” value was found to be 70% in assay [4] (dose 37.5 g a.i./hm^2), 80% in assay [4] (dose 150 g a.i./hm^2) and 100% in assay [4] (dose 600 g a.i./hm^2). For the same compound, the figures for the “Growth inhibition rate, Pre-emergence treatment, Echinochloa crus-galli (L.) Beauv.” value in assay [4] (dose 37.5 g a.i./hm^2), in assay [4] (dose 150 g a.i./hm^2) and in assay [4] (dose 600 g a.i./hm^2) were 0%, 10% and 20%, respectively. Further, the “Growth inhibition rate, Post-emergence treatment, Zinnia elegans Jacq.” value in the assay with Zinnia elegans Jacq. (dose 37.5 g a.i./hm^2), in the assay with Zinnia elegans Jacq. (dose 150 g a.i./hm^2) and in the assay on Zinnia elegans Jacq. (dose 600 g a.i./hm^2) was 100% in each case. For the same compound, the “Growth inhibition rate, Pre-emergence treatment, Zinnia elegans Jacq.” value in the assay with Zinnia elegans Jacq. (dose 37.5 g a.i./hm^2) came to 0%; in the assay on Zinnia elegans Jacq. (dose 150 g a.i./hm^2) it was 10%; in the assay on Zinnia elegans Jacq. (dose 600 g a.i./hm^2) it was 35%.

In the case of `CCCCOC(=O)C1(C)CC(c2cc(-n3c(=O)cc(C(F)(F)F)n(C)c3=O)c(F)cc2Cl)=NO1` (stereo not drawn) [Compound 8], the “pre-emergence and post-emergence herbicidal activity against broad-leaf weeds and grass weeds” value in assay [1] was “good”. In addition, the “Growth inhibition rate, Post-emergence treatment, Setaria glauca (L.) Beauv.” value in assay [2] (dose 7.5 g a.i./hm^2) is recorded as 60%; in assay [2] (dose 15 g a.i./hm^2), 80%; in assay [2] (dose 30.0 g a.i./hm^2) it was 100%; in assay [2] (dose 60.0 g a.i./hm^2), 100%; in assay [2] (dose 120.0 g a.i./hm^2) it was 100%. Also, the “Growth inhibition rate, Post-emergence treatment, Abutilon theophrasti Medic.” value in assay [3] (dose 7.5 g a.i./hm^2), in assay [3] (dose 15 g a.i./hm^2), in assay [3] (dose 30.0 g a.i./hm^2), in assay [3] (dose 60.0 g a.i./hm^2) and in assay [3] (dose 120.0 g a.i./hm^2) was 100% throughout. Moreover, the “Growth inhibition rate, Post-emergence treatment, Echinochloa crus-galli (L.) Beauv.” value is 70% in assay [4] (dose 7.5 g a.i./hm^2); 95% in assay [4] (dose 15 g a.i./hm^2); 100% in assay [4] (dose 30.0 g a.i./hm^2); 100% in assay [4] (dose 60.0 g a.i./hm^2); 100% in assay [4] (dose 120.0 g a.i./hm^2). The “Growth inhibition rate, Post-emergence treatment, Zinnia elegans Jacq.” value in the assay with Zinnia elegans Jacq. (dose 7.5 g a.i./hm^2) turned out to be 90%; in the assay on Zinnia elegans Jacq. (dose 15 g a.i./hm^2), 95%; in the assay with Zinnia elegans Jacq. (dose 30.0 g a.i./hm^2), 95%; in the assay with Zinnia elegans Jacq. (dose 60.0 g a.i./hm^2), 100%; with Zinnia elegans Jacq. (dose 120.0 g a.i./hm^2) it was 100%.

On to `C#CCOC(=O)C1(C)CC(c2cc(-n3c(=O)cc(C(F)(F)F)n(C)c3=O)ccc2Cl)=NO1` (stereo not drawn) [Compound 290], for which the “pre-emergence and post-emergence herbicidal activity against broad-leaf weeds and grass weeds” value in assay [1] is “good”. The “Growth inhibition rate, Post-emergence treatment, Setaria glauca (L.) Beauv.” value in assay [2] (dose 37.5 g a.i./hm^2) is given as 40%; in assay [2] (dose 150 g a.i./hm^2) it was 75%; in assay [2] (dose 600 g a.i./hm^2) it was 85%. Further, the figures for the “Growth inhibition rate, Pre-emergence treatment, Setaria glauca (L.) Beauv.” value in assay [2] (dose 37.5 g a.i./hm^2), in assay [2] (dose 150 g a.i./hm^2) and in assay [2] (dose 600 g a.i./hm^2) were 0%, 10% and 25%, respectively. Moreover, the “Growth inhibition rate, Post-emergence treatment, Abutilon theophrasti Medic.” value came to 85% in assay [3] (dose 37.5 g a.i./hm^2), 98% in assay [3] (dose 150 g a.i./hm^2) and 100% in assay [3] (dose 600 g a.i./hm^2). Also, the “Growth inhibition rate, Pre-emergence treatment, Abutilon theophrasti Medic.” value in assay [3] (dose 37.5 g a.i./hm^2) worked out at 10%; in assay [3] (dose 150 g a.i./hm^2) it was 35%; in assay [3] (dose 600 g a.i./hm^2) it was 60%. In addition, the “Growth inhibition rate, Post-emergence treatment, Echinochloa crus-galli (L.) Beauv.” value in assay [4] (dose 37.5 g a.i./hm^2) is 25%; in assay [4] (dose 150 g a.i./hm^2), 65%; in assay [4] (dose 600 g a.i./hm^2), 70%. Further, the “Growth inhibition rate, Pre-emergence treatment, Echinochloa crus-galli (L.) Beauv.” value in assay [4] (dose 37.5 g a.i./hm^2) is recorded as 0%; in assay [4] (dose 150 g a.i./hm^2), 0%; in assay [4] (dose 600 g a.i./hm^2), 20%. Also, the figures for the “Growth inhibition rate, Post-emergence treatment, Zinnia elegans Jacq.” value with Zinnia elegans Jacq. (dose 37.5 g a.i./hm^2), in the assay with Zinnia elegans Jacq. (dose 150 g a.i./hm^2) and with Zinnia elegans Jacq. (dose 600 g a.i./hm^2) were 75%, 100% and 100%, respectively. Besides, the “Growth inhibition rate, Pre-emergence treatment, Zinnia elegans Jacq.” value in the assay with Zinnia elegans Jacq. (dose 37.5 g a.i./hm^2) is 0%; with Zinnia elegans Jacq. (dose 150 g a.i./hm^2), 0%; in the assay on Zinnia elegans Jacq. (dose 600 g a.i./hm^2), 20%.
